Each structure is given as a SMILES string. Values after ≈ are worked out from the molar mass of the structure shown. Active and inactive are the calls of the source. No cut-off for these calls is given here.

The values that follow come from ChEMBL document CHEMBL4339208, “6-Bromoindolglyoxylamido derivatives as antimicrobial agents and antibiotic enhancers” (Bioorg Med Chem, 2019).

In series [1] the test system is Erythrocyte. The series is described as follows: Hemolytic activity against human RBC at 32 ug/ml incubated for 10 mins under shaking condition measured after 1 hr. The format is ADME, cell-based.
Series [2] deals with Staphylococcus intermedius. The series is described as follows: Antibacterial activity against Staphylococcus intermedius 1051997 measured after 18 hrs by broth dilution method. The class given is functional. The following applies: Staphylococcus intermedius, 1051997, 18 h. On the technique in general: Dilution methods test growth across graded concentrations, often in twofold steps.

Series [3] concerns Pseudomonas aeruginosa. The experiment in a line: Disruption of membrane integrity in Pseudomonas aeruginosa PAO1 assessed as increase in extracellular ATP level by luciferin-luciferase reagent based luminescence assay. The class given is functional, organism-based.
Series [4] has as its system Klebsiella pneumoniae. The series is described as follows: Antibacterial activity against Klebsiella pneumoniae ATCC 700603 at 32 ug/ml measured after 18 hrs by resazurin dye based assay. The class given is functional, organism-based. On the technique in general: Alamar Blue is a resazurin reagent that responds to reducing activity.
Series [5] concerns Staphylococcus aureus. The series is described as follows: Disruption of membrane integrity in Staphylococcus aureus ATCC 25923 assessed as increase in extracellular ATP level by luciferin-luciferase reagent based luminescence assay. The class given is functional, organism-based.
For series [6], the system named is Cryptococcus neoformans. The experiment in a line: Antifungal activity against Cryptococcus neoformans ATCC 208821 measured after 36 hrs by resazurin dye based assay. The format is functional. Particulars: ATCC 208821, 36 h.
In series [7] the test system is Pseudomonas aeruginosa. The experiment in a line: Antibacterial activity against Pseudomonas aeruginosa ATCC 27853 measured after 18 hrs by broth dilution method. The class given is functional. The following applies: ATCC 27853, 18 h.
For series [8], the system named is Pseudomonas aeruginosa. The series is described as follows: Disruption of membrane integrity in Pseudomonas aeruginosa PAO1 assessed as decrease in intracellular ATP level at 10 ug/ml by luciferin-luciferase reagent based luminescence assay relative to control. The class given is functional. Details: scale not given: the % may be the effect or the level left.
Series [9] deals with Pseudomonas aeruginosa. The experiment in a line: Potentiation of doxycycline-induced antibacterial activity against Pseudomonas aeruginosa ATCC 27853 assessed as concentration required to restore 2 ug/ml doxycycline activity measured after 18 hrs. The class given is functional.
Series [10] relates to Erythrocyte. The experiment in a line: Hemolytic activity against human RBC incubated for 10 mins under shaking condition measured after 1 hr. The class given is ADME, cell-based.
Series [11] has as its system Acinetobacter baumannii. The series is described as follows: Antibacterial activity against Acinetobacter baumannii ATCC 19606 at 32 ug/ml measured after 18 hrs by resazurin dye based assay. The format is functional, organism-based. Particulars: ATCC 19606 = CIP 70.34 = JCM 6841.
Series [12] concerns Pseudomonas aeruginosa. The series is described as follows: Induction of membrane depolarization in Pseudomonas aeruginosa PAO1 at 10.4 uM measured after 15 mins by DiSC3(5) dye based spectrofluorometric method. The format is functional, organism-based.
The test system of series [13] is Staphylococcus aureus. The experiment in a line: Induction of membrane depolarization in Staphylococcus aureus ATCC 25923 measured after 15 mins by DiSC3(5) dye based spectrofluorometric method. The class given is functional, organism-based.
Series [14] has as its system Acinetobacter baumannii. The series is described as follows: Antibacterial activity against Acinetobacter baumannii ATCC 19606 measured after 18 hrs by resazurin dye based assay. Particulars: ATCC 19606 = CIP 70.34 = JCM 6841, 18 h. The class given is functional.
Series [15] deals with Candida albicans. The series is described as follows: Antifungal activity against Candida albicans ATCC 90028 measured after 36 hrs. The class given is functional. Particulars: ATCC 90028, 36 h.
Series [16] is described as follows: Cytotoxicity against HEK293 cells measured after 20 hrs by resazurin dye based fluorescence assay. The class given is cell-based, Homo sapiens. Particulars: human, HEK293 cells.
Series [17] concerns Klebsiella pneumoniae. The series is described as follows: Antibacterial activity against Klebsiella pneumoniae ATCC 700603 measured after 18 hrs by resazurin dye based assay. The class given is functional. The following applies: Klebsiella pneumoniae, 700603, 18 h.
The subject of series [18] is Staphylococcus aureus. The experiment in a line: Antibacterial activity against Staphylococcus aureus ATCC 25923 measured after 18 hrs by broth dilution method. The format is functional. The following applies: ATCC 25923, 18 h.
Series [19] concerns Escherichia coli. The experiment in a line: Antibacterial activity against Escherichia coli ATCC 25922 measured after 18 hrs by broth dilution method. The format is functional. The following applies: ATCC 25922, 18 h.
The subject of series [20] is Staphylococcus aureus. The series is described as follows: Induction of membrane depolarization in Staphylococcus aureus ATCC 25923 at 10.4 uM measured after 15 mins by DiSC3(5) dye based spectrofluorometric method. The format is functional, organism-based.

One may read the MIC as the least concentration at which growth counts as inhibited. The CC50 is the concentration giving 50% cytotoxicity. Turning to `O=C(NCCCNCCCCNCCCNC(=O)C(=O)c1c[nH]c2cc(Br)ccc12)C(=O)c1c[nH]c2cc(Br)ccc12`, the Activity result was “Non-Toxic” in series [1]; “Dose-dependent effect” in [3]; “Dose-dependent effect” in series [5]; 10% in series [8]; 6.25 µM in series [9]; “Dose-dependent effect” in series [13]. Also, the MIC in series [2] was 3.12 µM (≈ 2.2 µg/mL); in series [6] it was 1.1 µM (≈ 0.773 µg/mL); in series [7], 100 µM (≈ 70.2 µg/mL); in series [14] it was above 34 µM; in series [15], 17.2 µM (≈ 12.1 µg/mL); in [17], above 34 µM. Moreover, the MIC in series [18] worked out at 6.25 µM (≈ 4.39 µg/mL); in series [19] it was 100 µM (≈ 70.2 µg/mL). The outcome in [4] and in series [11] was inactive. Also, the HC10 in series [10] was above 34 µM. The result in series [12] and in series [20] was Active. The CC50 at 20 h in series [16] came out at 5.06 µM.
